# Assay results reported in patent US20100104621A1, “TREATING ADHD AND OTHER DISEASES INVOLVING INFLAMMATION” (CONNECTED HEALTH SYSTEMS, LLC, priority 2007, published 2010).
# Assays:
# VEGF = settings: animal studies; cited from earlier work
# ovarian cancer = settings: in 10 days, animal studies; cited from earlier work
# [1] = system: pyramidal neurons in the medial prefrontal cortex; settings: after 12 days of continuous administration; cited from earlier work
# [2] = system: patient with OCD and ADHD, and their child; assay: Example 4: family with history of ADHD, OCD and cancer; format: in vivo, human
# From the text: The 5HT2A receptor has been associated with OCD, Seasonal Affective Disorder, Alcoholism, and a predisposition toward Schizophrenia. The gene for this receptor is found on chromosome 13. A patient presents with OCD and ADHD. Two of their children also are diagnosed with OCD and ADHD. […] They test positive for BRCA2 which is also found on chromosome 13 in the same region as the gene for the 5HT2A receptor.
# Lowered catecholamines lead to slightly elevated prolactin and can alter GnRH. Elevated GnRH leads to spikes in estrogen and progesterone and may eventually lead to premature ovarian failure along with alterations in inflammation and co-factors. Elevated interleukins lead to increased free radical production and damage to DNA. Lowered dopamine would allow for angiogenesis. Elevated interleukins could induce CREB and increase the expression of ICAM and VCAM. BRCA2 lowers p53, p21 (tumor suppressor genes) as well as RAD51, which repairs damage to DNA. Catecholamines may interact with genes involved in cancer via common second messenger systems. Laboratory tests reveal that the patient has a high vitamin B6 level of 100, and an abnormal amino acid profile.
# Treatment of the patient includes administering an extended release CNS stimulant at an appropriate dosage to achieve the desired therapeutic effect, substantially around the clock. […]
# [3] = system: obese person diagnosed with ADHD; assay: Example 5: treatment of obese person with ADHD; format: in vivo, human; settings: with Adderall XR; amino acid supplements for 4 months then stopped
# From the text: An obese person presents complaining of depression. They are on Lipitor for high cholesterol and has a heart rate of 116 and a blood pressure of 166/112. They also have “heart burn”. They are diagnosed with ADHD and titrated up to 15 mgs of Adderall XR three times a day. Their heart rate decreases to 100 at the first visit four weeks later and after 8 weeks it is 88. Based on lab reports, their vitamin B6 level is elevated at 56 and they are deficient in arginine, ornithine, histidine, threonine, and taurine along with other amino acids. They also have an elevated IL-6 level. Their vitamin D3 level is also very low. They are started on P-5-P and is supplemented with the aforementioned amino acids to help replenish their body. Their taurine level is 18 and normal is at 54. They are a candidate for developing a cardiac arrhythmia.
# […] Their blood pressure and heart rate continue to decline and they begin to lose weight despite having a normal appetite. […] Their depression is gone and they are dreaming about becoming a lawyer. They remain on Adderall XR, however their dose is decreased to 10 mgs three times a day. They remain on P-5-P. The patient's amino acid profile is normal and their CRP is normal. CRP is an indirect measure of IL-6 and is impacted by low levels of P-5-P.
# [4] = system: person with stage 4 ovarian cancer; assay: Example 6: person with stage 4 ovarian cancer; format: in vivo, human; settings: with Adderall XR
# From the text: A person presents with stage 4 ovarian cancer, skin picking, irritable bowel syndrome, PMS, allergies, and a tonsillectomy. They are BRCA1 positive and lost their parent due to breast cancer. Other family members have succumbed to breast cancer, pancreatic cancer, and colon cancer. They are screened for ADHD and is started on Adderall XR and titrated up to 15 mgs three times a day. They are tapered off Prozac for depression. Six weeks later they state that their depression is gone and their energy level is back to normal and their strength is retuning. Their nausea is also gone. […] When they ran out of vitamin B6, their skin picking returns in one week, but stops the day they resume taking vitamin B6.
# Catecholamines may interact with genes involved in cancer in certain tissues. BRCA1 knocks p21, p53, and RAD51 out. Genes can be turned on and off based on signaling. Their amino acid profile fits with a defect in pyridoxine-5′-phosphate oxidase which is located on […]. This is beside BRCA1 on chromosome 17. It is possible the patient has a defect in SLC6A4 not ADHD 2 on 17p11.2. 17p11.2 is the site of serine hydroxymethyltransferase. Additionally, it is possible that second messengers that are inactivated by BRCA-1 are responsible for lowering their catecholamines. […]
compound,measurement,setting,value
NCCc1ccc(O)c(O)c1 [Dopamine],effect on VEGF,VEGF,inhibit
same,shrinkage of ovarian cancer,ovarian cancer,80%
CC(N)Cc1ccccc1 (centres unmarked) [amphetamine],dendritic length and branches of pyramidal neurons in the medial prefrontal cortex,[1],increase in dendritic length and branches
"Cc1ncc(COP(=O)(O)O)c(C=O)c1O [P-5-P, pyridoxal 5′-phosphate]",amino acid profile,"[2]; child, with around the clock stimulant, fish oil and antioxidants",returns to normal
same,amino acid profile,"[2]; parent, 100 mgs, with extended release CNS stimulant",corrects
same,CRP,[3],normal
same,amino acid profile,[3],normal
same,skin picking,[4],stops that same day
